Tests used:
[1] = system: tacrolimus assay antibody (1E2 Clone); assay: Cross-reactivity with tacrolimus assay antibody; format: binding; details: for Cross-reactivity with tacrolimus assay antibody (in words): 1E2 clone, compared with the '518 patent analog; for % Cross-Reactivity: tacrolimus assay antibody 1E2 clone
Description: (§1) Table 2 indicates the cross-reactivities detected for the various displacers of the present disclosure with the everolimus assay antibody (155-M1), while Table 3 indicates the cross-reactivities detected for the various displacers of the present disclosure with the tacrolimus assay antibody (1E2 clone).
Next, the cross-reactivity of each of the analogs used in the everolimus assay was tested with the antibody used in the tacrolimus assay (Table 3). While efforts may be made to minimize reagent carryover from the everolimus assay to the tacrolimus assay, an automated instrument may run both everolimus and tacrolimus (or sirolimus) assays simultaneously. Therefore, due to the use of a large amount of displacer (tacrolimus analogs) present in the everolimus assay, the displacer could be carried into the tacrolimus assay, and this would cause a falsely elevated signal in the tacrolimus assay if cross-reaction were observed.

[2] = system: everolimus assay antibody (155-M1 Clone); assay: Cross-reactivity with everolimus assay antibody; format: binding, mouse; details: for % Cross-Reactivity: everolimus assay antibody 155-M1 clone
Description: (§2) The automated DIMENSION® assay system (Siemens Healthcare Diagnostics Inc., Tarrytown, NY), the everolimus (EVRO) assay method uses an immunoassay technique in which free and everolimus-bound antibody-enzyme conjugate is separated using magnetic particles. The assay antibody used for this assay is a mouse monoclonal antibody (cell line: 155-M1). The assay was performed using a method specific FLEX® reagent cartridge (Siemens Healthcare Diagnostics Inc., Tarrytown, NY). The FLEX® reagent cartridge contains a pretreatment reagent, antibody-β-galactosidase conjugate, everolimus analog immobilized on chromium dioxide particles, chlorophenol red β-d-galactopyranoside (CPRG) substrate, and diluent to hydrate the tablets. To perform the EVRO assay, a sample cup (or SSC) containing the whole blood sample to be analyzed and an EVRO FLEX® reagent cartridge were placed appropriately on the DIMENSION® system. The DIMENSION® system mixed and lysed the whole blood sample in the presence of the pretreatment reagent that contains detergents and a displacer (FK506 or FK506 analogs as described previously). This reagent contains a displacer which acts to displace everolimus in the sample from endogenous binding proteins (immunophilins such as FKBPs, etc.). The lysed sample was then mixed with the antibody enzyme conjugate. The everolimus present in the sample was bound by the everolimus antibody. Magnetic particles coated with everolimus analog were added to bind free (unbound) antibody-enzyme conjugate. The reaction mixture was then separated magnetically. Following separation, the supernatant containing the everolimus-antibody-enzyme complex was transferred to a cuvette and mixed with the substrate, chlorophenol red β-d-galactopyranoside (CPRG). β-galactosidase catalyzes the hydrolysis of CPRG to produce chlorophenol red (CPR) that absorbs light maximally at 577 nm. The change in absorbance at 577 nm due to the formation of CPR is directly proportional to the amount of everolimus in the patient's sample and is measured using a bichromatic (577 nm, 700 nm) rate technique.
as §1

[3] = system: endogenous binding proteins (immunophilins such as FKBPs); assay: Everolimus (EVRO) DIMENSION immunoassay standard curves with displacers; details: whole blood sample
Description: as §2
The assay was conducted in the absence of any displacer as well as in the presence of the following displacers: tacrolimus (FK506, as represented by Formula I), FK506 Ester (disclosed in U.S. Pat. No. 7,186,518), FK506 C24 succinate (as represented by Formula VII), Reduced FK506 (as represented by Formula IV), FK506 22-oxime-32-isocyanatoacetatethyl ester (as represented by Formula VI), and FK506 oxime (as represented by Formula V).
The ability of the FK analogs to displace everolimus drug in the everolimus assay is a function of their FKBP (macrophilin) binding. So the curve size after adding the displacer indicates the ability of their FKBP binding: the larger the curve size, the better the binding.

Compound	Cross-reactivity with tacrolimus assay antibody (in words) [1]	% Cross-Reactivity [1] [%]	% Cross-Reactivity [2] [%]	Everolimus standard curve signal with displacer ([3]; BV 0 ng/mL everolimus)	Everolimus standard curve signal with displacer ([3]; BV 5.5 ng/mL everolimus)	Everolimus standard curve signal with displacer ([3]; BV 11.2 ng/mL everolimus)	Everolimus standard curve signal with displacer ([3]; BV 21.9 ng/mL everolimus)	Everolimus standard curve signal with displacer ([3]; BV 34.3 ng/mL everolimus)	Cross-reactivity with everolimus assay antibody (in words) ([2]; 155-M1 clone)
C=CC[C@@H]1/C=C(\C)C[C@H](C)C[C@H](OC)[C@H]2O[C@@](O)(C(=O)C(=O)N3CCCC[C@H]3C(=O)O[C@H](/C(C)=C/[C@@H]3CC[C@@H](O)[C@H](OC)C3)[C@H](C)[C@@H](OC(=O)CCC(=O)O)CC1=O)[C@H](C)C[C@@H]2OC [24-Succinate FK506, FK506 C24 succinate]	much lower cross-reactivities	13.3	0.01	16	71	108	145	157	–
CCC[C@@H]1CC(C)C[C@H](C)C[C@H](OC)[C@H]2O[C@@](O)(C(=O)C(=O)N3CCCC[C@H]3C(=O)O[C@H](C(C)C[C@@H]3CC[C@@H](OC(=O)NCC(=O)OCC)[C@H](OC)C3)[C@H](C)[C@@H](O)CC1=NOCC(=O)O)[C@H](C)C[C@@H]2OC (stereo partly drawn) [FK-506-1]	much lower cross-reactivities	1.5	0.02	18	68	102	140	154	–
C=CC[C@@H]1/C=C(\C)C[C@H](C)C[C@H](OC)[C@H]2O[C@@](O)(C(=O)C(=O)N3CCCC[C@H]3C(=O)O[C@H](/C(C)=C/[C@@H]3CC[C@@H](O)[C@H](OC)C3)[C@H](C)[C@@H](O)CC1=O)[C@H](C)C[C@@H]2OC [FK506, Tacrolimus, reference compound]	–	100	0.01	17	67	104	143	156	substantially no cross-reactivity

— patent publication US11958863B2, “Binding competitors for use in macrophilin-binding pharmaceutical assays and methods of use thereof” (Siemens Healthcare Diagnostics Inc., priority 2018, dated 2024)
